Data from PubChem BioAssay AID1259407 (Chemical Carcinogenesis Research Information System (CCRIS), 2018).
Activity calls are given as the source filed them. No rule for the calls is given here.

Test system: CCRIS mutagenicity, Ames/micronucleus/aberration tests
Assay: CCRIS mutagenicity studies
Settings: Test System: AMES SALMONELLA TYPHIMURIUM

Measured: mutagenic call

C=CCc1ccc2c(c1)OCO2
inactive: Strain/Indicator: TA97, Metabolic Activation: HAMSTER LIVER S-9, AROCLOR 1254 (10%), Method: PREINCUBATION inactive; negative | Strain/Indicator: TA97, Metabolic Activation: HAMSTER LIVER S-9, AROCLOR 1254 (30%), Method: PREINCUBATION inactive; negative | Strain/Indicator: TA97, Metabolic Activation: NONE, Method: PREINCUBATION inactive; negative | Strain/Indicator: TA97, Metabolic Activation: NONE, Method: STANDARD PLATE inactive; negative | Strain/Indicator: TA97, Metabolic Activation: RAT LIVER S-9, AROCLOR 1254 (10%), Method: PREINCUBATION inactive; negative | Strain/Indicator: TA97, Metabolic Activation: RAT LIVER S-9, AROCLOR 1254 (30%), Method: PREINCUBATION inactive; negative | Strain/Indicator: TA97, Metabolic Activation: S-9, Method: STANDARD PLATE inactive; negative | Strain/Indicator: TA98, Metabolic Activation: HAMSTER LIVER S-9, AROCLOR 1254 (10%), Method: PREINCUBATION inactive; negative | Strain/Indicator: TA98, Metabolic Activation: HAMSTER LIVER S-9, AROCLOR 1254 (30%), Method: PREINCUBATION inactive; negative | Strain/Indicator: TA98, Metabolic Activation: NONE, Method: PREINCUBATION inactive; negative | Strain/Indicator: TA98, Metabolic Activation: NONE, Method: STANDARD PLATE inactive; negative | Strain/Indicator: TA98, Metabolic Activation: RAT LIVER S-9, AROCLOR 1254 (10%), Method: PREINCUBATION inactive; negative | Strain/Indicator: TA98, Metabolic Activation: RAT LIVER S-9, AROCLOR 1254 (30%), Method: PREINCUBATION inactive; negative | Strain/Indicator: TA98, Metabolic Activation: RAT, LIVER, S-9, AROCLOR 1254, Method: STANDARD PLATE inactive; negative | Strain/Indicator: TA98, Metabolic Activation: S-9, Method: STANDARD PLATE inactive; negative | Strain/Indicator: TA100, Metabolic Activation: HAMSTER LIVER S-9, AROCLOR 1254 (10%), Method: PREINCUBATION inactive; negative | Strain/Indicator: TA100, Metabolic Activation: HAMSTER LIVER S-9, AROCLOR 1254 (30%), Method: PREINCUBATION inactive; negative | Strain/Indicator: TA100, Metabolic Activation: NONE, Method: PREINCUBATION inactive; negative | Strain/Indicator: TA100, Metabolic Activation: NONE, Method: STANDARD PLATE inactive; negative | Strain/Indicator: TA100, Metabolic Activation: RAT LIVER S-9, AROCLOR 1254 (10%), Method: PREINCUBATION inactive; negative | Strain/Indicator: TA100, Metabolic Activation: RAT LIVER S-9, AROCLOR 1254 (30%), Method: PREINCUBATION inactive; negative | Strain/Indicator: TA100, Metabolic Activation: RAT, LIVER, S-9, AROCLOR 1254, Method: STANDARD PLATE inactive; negative | Strain/Indicator: TA100, Metabolic Activation: S-9, Method: STANDARD PLATE inactive; negative | Strain/Indicator: TA102, Metabolic Activation: NONE, Method: STANDARD PLATE inactive; negative | Strain/Indicator: TA102, Metabolic Activation: RAT LIVER S-9, PHENOBARBITAL AND 5,6-BENZOFLAVONE, Method: STANDARD PLATE inactive; negative | Strain/Indicator: TA102, Metabolic Activation: S-9, Method: STANDARD PLATE inactive; negative | Strain/Indicator: TA1535, Metabolic Activation: HAMSTER LIVER S-9, AROCLOR 1254 (10%), Method: PREINCUBATION inactive; negative | Strain/Indicator: TA1535, Metabolic Activation: HAMSTER LIVER S-9, AROCLOR 1254 (30%), Method: PREINCUBATION inactive; negative | Strain/Indicator: TA1535, Metabolic Activation: NONE, Method: PREINCUBATION inactive; negative
